These results are taken from US20170189504A1, “NOVEL PEPTIDES AND COMBINATION OF PEPTIDES FOR USE IN IMMUNOTHERAPY AGAINST VARIOUS CANCERS” (immatics biotechnologies GmbH, priority 2015, published 2017).

The test system of this assay is HLA-A*02. The experiment in a line: MHC binding assay, UV-ligand exchange with β2m ELISA, HLA-A*02 (Table 20). Details: species or system human. The note with it: binding to HLA-A*02 ranged by peptide exchange yield (UV-ligand exchange, β2m ELISA). An excerpt: Candidate peptides for T cell based therapies according to the present invention were further tested for their MHC binding capacity (affinity). The individual peptide-MHC complexes were produced by UV-ligand exchange, where a UV-sensitive peptide is cleaved upon UV-irradiation, and exchanged with the peptide of interest as analyzed. Only peptide candidates that can effectively bind and stabilize the peptide-receptive MHC molecules prevent dissociation of the MHC complexes. To determine the yield of the exchange reaction, an ELISA was performed based on the detection of the light chain ((β2m) of stabilized MHC complexes. The assay was performed as generally described in Rodenko et al. (Rodenko et al., 2006).
96 well MAXISorp plates (NUNC) were coated over night with 2 ug/ml streptavidin in PBS at room temperature, washed 4× and blocked for 1 h at 37° C. in 2% BSA containing blocking buffer. Refolded HLA-A*02:01/MLA-001 monomers served as standards, covering the range of 15-500 ng/ml. Peptide-MHC monomers of the UV-exchange reaction were diluted 100 fold in blocking buffer. Samples were incubated for 1 h at 37° C., washed four times, incubated with 2 ug/ml HRP conjugated anti-β2m for 1 h at 37° C., washed again and detected with TMB solution that is stopped with […]. Absorption was measured at 450 nm. Candidate peptides that show a high exchange yield (preferably higher than 50%, most preferred higher than 75%) are generally preferred for a generation and production of antibodies or fragments thereof, and/or T cell receptors or fragments thereof, as they show sufficient avidity to the MHC molecules and prevent dissociation of the MHC complexes.
A general note: ELISA stands for enzyme-linked immunosorbent assay.

With “3 (KLEENGDLYL; listed as Homo sapiens) [compound 3]”, the Peptide exchange entry was “++++ (≧75% = ++++)”.

For “9 (FLVDGSYSI; listed as Homo sapiens) [compound 9]”, the Peptide exchange entry is recorded as “+++ (50%-75% = +++)”.

Consider “10 (GIAGSLKTV; listed as Homo sapiens) [compound 10]”, for which the Peptide exchange entry was “+++ (50%-75% = +++)”.

In the case of “13 (ALMAMLVYV; listed as Homo sapiens) [compound 13]”, the Peptide exchange result was “++ (20%-49% = ++)”.

Consider “15 (YLDLSHNQL; listed as Homo sapiens) [compound 15]”, for which the Peptide exchange entry is “+++ (50%-75% = +++)”.

In the case of “16 (YTLDIPVLFGV; listed as Homo sapiens) [compound 16]”, the Peptide exchange result is “++++ (≧75% = ++++)”.

In the case of “19 (SISDNVWEV; listed as Homo sapiens) [compound 19]”, the Peptide exchange result is listed as “+++ (50%-75% = +++)”.

“21 (AIQDEIRSV; listed as Homo sapiens) [compound 21]”: the Peptide exchange result is “+++ (50%-75% = +++)”.

Consider “22 (FVDPNTQEKV; listed as Homo sapiens) [compound 22]”, for which the Peptide exchange result is given as “++ (20%-49% = ++)”.

As for “24 (TLDEKVAEL; listed as Homo sapiens) [compound 24]”, the Peptide exchange result was “+++ (50%-75% = +++)”.

Regarding “25 (TMDSVLVTV; listed as Homo sapiens) [compound 25]”, the Peptide exchange result was “+++ (50%-75% = +++)”.

Consider “28 (SLPNGKPVSV; listed as Homo sapiens) [compound 28]”, for which the Peptide exchange result is “+++ (50%-75% = +++)”.

Turning to “30 (AMIEEVFEA; listed as Homo sapiens) [compound 30]”, the Peptide exchange result is reported as “++ (20%-49% = ++)”.

On to “32 (VQLDSIEDLEV; listed as Homo sapiens) [compound 32]”, for which the Peptide exchange entry was “+++ (50%-75% = +++)”.

Turning to “33 (YIKTELISV; listed as Homo sapiens) [compound 33]”, the Peptide exchange result was “+++ (50%-75% = +++)”.

For “34 (FLLATEVVTV; listed as Homo sapiens) [compound 34]”, the Peptide exchange result was “++++ (≧75% = ++++)”.

For “36 (SLADTNSLAVV; listed as Homo sapiens) [compound 36]”, the Peptide exchange entry is on record as “+++ (50%-75% = +++)”.

Consider “37 (ILAPFSVDL; listed as Homo sapiens) [compound 37]”, for which the Peptide exchange entry is “+++ (50%-75% = +++)”.

Consider “38 (FLGPRIIGL; listed as Homo sapiens) [compound 38]”, for which the Peptide exchange entry is reported as “+++ (50%-75% = +++)”.

Take “39 (HLLEGSVGV; listed as Homo sapiens) [compound 39]”: the Peptide exchange entry is “+++ (50%-75% = +++)”.

As to “40 (VLIDPQWVLTA; listed as Homo sapiens) [compound 40]”, the Peptide exchange result was “+++ (50%-75% = +++)”.

In the case of “41 (ALFENTPKA; listed as Homo sapiens) [compound 41]”, the Peptide exchange result is “++ (20%-49% = ++)”.

For “42 (LLDSVSRL; listed as Homo sapiens) [compound 42]”, the Peptide exchange entry is “+ (<20% = +)”.

Regarding “44 (SLFETAWEA; listed as Homo sapiens) [compound 44]”, the Peptide exchange result was “+++ (50%-75% = +++)”.

As for “45 (SLTEVSLPL; listed as Homo sapiens) [compound 45]”, the Peptide exchange result is on record as “+++ (50%-75% = +++)”.

On to “46 (SQFPLPLAV; listed as Homo sapiens) [compound 46]”, for which the Peptide exchange entry is reported as “++ (20%-49% = ++)”.

For “47 (ALLERGELFV; listed as Homo sapiens) [compound 47]”, the Peptide exchange result is recorded as “+++ (50%-75% = +++)”.

Consider “48 (QVIEDSTGV; listed as Homo sapiens) [compound 48]”, for which the Peptide exchange entry was “++ (20%-49% = ++)”.

Regarding “49 (ALNIATHVL; listed as Homo sapiens) [compound 49]”, the Peptide exchange result is “+++ (50%-75% = +++)”.

As to “50 (ILFHGVFYA; listed as Homo sapiens) [compound 50]”, the Peptide exchange result is “+++ (50%-75% = +++)”.

For “51 (LLFSRLCGA; listed as Homo sapiens) [compound 51]”, the Peptide exchange entry is reported as “++++ (≧75% = ++++)”.

For the substance “53 (KMVGLVVAI; listed as Homo sapiens) [compound 53]”, the Peptide exchange entry is given as “+++ (50%-75% = +++)”.

In the case of “54 (VLNPLITAV; listed as Homo sapiens) [compound 54]”, the Peptide exchange entry was “+++ (50%-75% = +++)”.

Regarding “55 (SLATKIVEA; listed as Homo sapiens) [compound 55]”, the Peptide exchange entry was “+++ (50%-75% = +++)”.

“56 (FLHDEKEGIYI; listed as Homo sapiens) [compound 56]”: the Peptide exchange entry is listed as “+++ (50%-75% = +++)”.

For “57 (TVFTDHMLTV; listed as Homo sapiens) [compound 57]”, the Peptide exchange entry is “++ (20%-49% = ++)”.

“58 (YLLPLLPAL; listed as Homo sapiens) [compound 58]”: the Peptide exchange result is “+++ (50%-75% = +++)”.

As for “59 (KLLDPQEFTL; listed as Homo sapiens) [compound 59]”, the Peptide exchange entry is “+++ (50%-75% = +++)”.

Turning to “60 (ALFAPLVHL; listed as Homo sapiens) [compound 60]”, the Peptide exchange entry is “+++ (50%-75% = +++)”.

Turning to “61 (AIVKEIVNI; listed as Homo sapiens) [compound 61]”, the Peptide exchange entry is reported as “++ (20%-49% = ++)”.

For the substance “62 (ALNPELVQA; listed as Homo sapiens) [compound 62]”, the Peptide exchange entry was “++ (20%-49% = ++)”.

Regarding “63 (SQIPAQPSV; listed as Homo sapiens) [compound 63]”, the Peptide exchange result is given as “++ (20%-49% = ++)”.

In the case of “64 (SLFPDSLIV; listed as Homo sapiens) [compound 64]”, the Peptide exchange entry is “++ (20%-49% = ++)”.

As for “65 (SVVPDVRSV; listed as Homo sapiens) [compound 65]”, the Peptide exchange entry is on record as “++ (20%-49% = ++)”.

As for “66 (KLIFSVEAV; listed as Homo sapiens) [compound 66]”, the Peptide exchange result is “+++ (50%-75% = +++)”.

Turning to “67 (TLLQRLTEV; listed as Homo sapiens) [compound 67]”, the Peptide exchange entry was “+++ (50%-75% = +++)”.

Turning to “68 (SLSNRLYYL; listed as Homo sapiens) [compound 68]”, the Peptide exchange result is recorded as “+++ (50%-75% = +++)”.

“69 (FLAVGLVDV; listed as Homo sapiens) [compound 69]”: the Peptide exchange entry is on record as “+++ (50%-75% = +++)”.

“70 (LLLGDSALYL; listed as Homo sapiens) [compound 70]”: the Peptide exchange result was “+++ (50%-75% = +++)”.

In the case of “71 (VLHSKFWVV; listed as Homo sapiens) [compound 71]”, the Peptide exchange result is “+++ (50%-75% = +++)”.

“72 (FLTAINYLL; listed as Homo sapiens) [compound 72]”: the Peptide exchange entry is “+++ (50%-75% = +++)”.

As for “73 (YTLREVDTV; listed as Homo sapiens) [compound 73]”, the Peptide exchange result is recorded as “++ (20%-49% = ++)”.

As to “74 (TLFGYSVVL; listed as Homo sapiens) [compound 74]”, the Peptide exchange result is “+++ (50%-75% = +++)”.

“75 (AVIKFLELL; listed as Homo sapiens) [compound 75]”: the Peptide exchange entry is listed as “+++ (50%-75% = +++)”.

As to “76 (AVGPVHNSV; listed as Homo sapiens) [compound 76]”, the Peptide exchange result is reported as “++ (20%-49% = ++)”.

On to “77 (TLIDEQDIPLV; listed as Homo sapiens) [compound 77]”, for which the Peptide exchange entry is given as “+++ (50%-75% = +++)”.

With “78 (TVVTRLDEI; listed as Homo sapiens) [compound 78]”, the Peptide exchange result is listed as “++ (20%-49% = ++)”.

For “79 (VTFKEYVTV; listed as Homo sapiens) [compound 79]”, the Peptide exchange result is on record as “++ (20%-49% = ++)”.

On to “80 (KLYEADFVL; listed as Homo sapiens) [compound 80]”, for which the Peptide exchange entry was “++ (20%-49% = ++)”.

With “81 (NALDKVLSV; listed as Homo sapiens) [compound 81]”, the Peptide exchange result is recorded as “+++ (50%-75% = +++)”.

Consider “82 (FIFDEAEKL; listed as Homo sapiens) [compound 82]”, for which the Peptide exchange entry is “+ (<20% = +)”.

With “83 (GQASYFYVA; listed as Homo sapiens) [compound 83]”, the Peptide exchange entry is listed as “++ (20%-49% = ++)”.

Turning to “84 (ALCPRIHEV; listed as Homo sapiens) [compound 84]”, the Peptide exchange result is “++++ (≧75% = ++++)”.

In the case of “85 (VLNDILVRA; listed as Homo sapiens) [compound 85]”, the Peptide exchange result is “+++ (50%-75% = +++)”.

As to “86 (SVDSHFQEV; listed as Homo sapiens) [compound 86]”, the Peptide exchange result is recorded as “++ (20%-49% = ++)”.

Turning to “87 (TIYKDFVYI; listed as Homo sapiens) [compound 87]”, the Peptide exchange result is listed as “++ (20%-49% = ++)”.

In the case of “88 (AQADHLPQL; listed as Homo sapiens) [compound 88]”, the Peptide exchange entry is given as “++ (20%-49% = ++)”.
